SMILES strings stand for the structures.

The source of these data is ChEMBL document CHEMBL5154644, “Design, Synthesis, and Structure-Activity Relationship Optimization of Pyrazolopyrimidine Amide Inhibitors of Phosphoinositide 3-Kinase γ (PI3Kγ)” (J Med Chem, 2022).

The nature of data set [1]: Metabolic stability in human hepatocytes assessed as intrinsic clearance per 10^6 cells at 0.5 uM by LC-MS/MS analysis. As to conditions: read-out: CLH. The format is ADME, cell-based, Hepatocyte.
The target in data set [2] is Phosphatidylinositol 4,5-bisphosphate 3-kinase catalytic subunit beta isoform (Homo sapiens, UniProt P42338). Description: Inhibition of PI3Kbeta (unknown origin) using PIP2 as substrate preincubated for 1 hr followed by substrate addition and measured after 60 mins in presence of ATP by ADP-glo assay. A general note: In ADP-Glo the light output rises with the ADP produced.

Data set [3] addresses T1, Phosphatidylinositol 4,5-bisphosphate 3-kinase catalytic subunit gamma isoform (Homo sapiens, UniProt P48736). Description: Inhibition of PI3Kgamma in SDF-1alpha stimulated human whole blood assessed as reduction in phospho-AKT kinase activity preincubated for 1 hr followed by SDF-1alpha stimulation and measured after 2 mins by flow cytometric analysis. Type of data set: tissue-based.

For data set [4], the species on record is Homo sapiens. As to the kind of experiment: Selectivity ratio of IC50 for inhibition of PI3Kbeta (unknown origin) to IC50 for inhibition of PI3Kgamma (unknown origin).
Data set [5] addresses T1, Phosphatidylinositol 4,5-bisphosphate 3-kinase catalytic subunit gamma isoform. As to the kind of experiment: Inhibition of PI3Kgamma (unknown origin) in […] stimulated human THP-1 cells assessed as reduction in Akt phosphorylation level at Ser473 residue preincubated for 60 mins followed by rhMCP-1 stimulation and measured after 2 mins by AlphaLisa assay. The format is cell-based. In general terms: Bead proximity is the source of the signal in Alpha formats.

Data set [6] deals with CYP3A4 (Homo sapiens, UniProt P08684). Description: in vitro. The settings on record: human liver microsomes, probe midazolam. (Liver microsomes are vesicles of endoplasmic reticulum, rich in cytochrome P450 enzymes.)
Description: Time dependent inhibition of CYP3A4 in human liver microsomes at 10 uM using midazolam as substrate preincubated for 30 mins in presence of NADPH by LC/MS/MS analysis relative to control
For data set [7], the species on record is Homo sapiens. Description: Selectivity ratio of IC50 for inhibition of PI3Kalpha (unknown origin) to IC50 for inhibition of PI3Kgamma (unknown origin).
The target of data set [8] is T1, Phosphatidylinositol 4,5-bisphosphate 3-kinase catalytic subunit gamma isoform. Description: Inhibition of PI3Kgamma (unknown origin) using PIP2 as substrate preincubated for 1 hr followed by substrate addition and measured after 60 mins in presence of ATP by ADP-glo assay.
A short description of data set [9]: Metabolic stability in rat hepatocyte assessed as intrinsic clearance per 10^8 cells at 0.5 uM by LC-MS/MS analysis. Type of data set: ADME, cell-based. As to conditions: hepatocytes.
Data set [10] concerns the target T2, Phosphatidylinositol 4,5-bisphosphate 3-kinase catalytic subunit delta isoform (Homo sapiens, UniProt O00329).
T2 sequence (O00329 whole entry): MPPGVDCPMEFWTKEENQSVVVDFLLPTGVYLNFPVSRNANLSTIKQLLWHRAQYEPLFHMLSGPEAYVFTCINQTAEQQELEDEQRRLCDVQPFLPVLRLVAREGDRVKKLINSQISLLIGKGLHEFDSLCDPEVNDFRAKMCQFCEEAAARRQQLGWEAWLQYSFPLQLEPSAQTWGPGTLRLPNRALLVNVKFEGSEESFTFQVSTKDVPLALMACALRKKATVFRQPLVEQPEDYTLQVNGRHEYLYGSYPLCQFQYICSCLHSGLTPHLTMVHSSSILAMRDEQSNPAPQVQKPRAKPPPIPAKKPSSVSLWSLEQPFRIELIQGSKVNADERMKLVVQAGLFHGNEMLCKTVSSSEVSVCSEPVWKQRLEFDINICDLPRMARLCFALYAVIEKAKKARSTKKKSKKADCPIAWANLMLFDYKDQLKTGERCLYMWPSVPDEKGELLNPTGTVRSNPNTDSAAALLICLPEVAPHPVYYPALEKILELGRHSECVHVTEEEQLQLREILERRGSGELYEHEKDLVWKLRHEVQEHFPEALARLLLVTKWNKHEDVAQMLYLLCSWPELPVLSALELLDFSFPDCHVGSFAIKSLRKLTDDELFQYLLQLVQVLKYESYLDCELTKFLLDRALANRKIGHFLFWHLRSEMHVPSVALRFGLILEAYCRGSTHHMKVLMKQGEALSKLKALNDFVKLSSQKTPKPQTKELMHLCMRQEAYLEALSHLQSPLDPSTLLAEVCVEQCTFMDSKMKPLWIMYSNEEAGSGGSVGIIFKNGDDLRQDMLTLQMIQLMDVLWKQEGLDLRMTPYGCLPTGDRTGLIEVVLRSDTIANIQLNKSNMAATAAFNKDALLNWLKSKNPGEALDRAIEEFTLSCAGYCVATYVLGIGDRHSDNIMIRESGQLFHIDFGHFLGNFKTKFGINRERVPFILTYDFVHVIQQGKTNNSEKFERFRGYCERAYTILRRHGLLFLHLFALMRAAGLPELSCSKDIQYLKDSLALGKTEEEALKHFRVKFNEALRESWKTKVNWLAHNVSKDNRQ
As to the kind of experiment: Inhibition of PI3Kdelta (unknown origin) using PIP2 as substrate preincubated for 1 hr followed by substrate addition and measured after 60 mins in presence of ATP by ADP-glo assay.

For data set [11], the target named is Phosphatidylinositol 4,5-bisphosphate 3-kinase catalytic subunit alpha isoform (Homo sapiens, UniProt P42336). Description: Inhibition of PI3Kalpha (unknown origin) using PIP2 as substrate preincubated for 1 hr followed by substrate addition and measured after 60 mins in presence of ATP by ADP-glo assay.
Data set [12] can be described thus: Hepatic clearance in Sprague-Dawley rat by LC-MS/MS analysis. Type of data set: ADME. As to conditions: in vivo.
For data set [13], the target named is T3, hERG (Homo sapiens, UniProt Q12809). As to the kind of experiment: Inhibition of human ERG at 3 uM by patch clamp assay relative to control. Type of data set: toxicity.
In data set [14] the target is T3, hERG. Description: Inhibition of human ERG at 10 uM by patch clamp assay relative to control. Type of data set: toxicity.

Chain of CYP3A4 (P08684 whole entry): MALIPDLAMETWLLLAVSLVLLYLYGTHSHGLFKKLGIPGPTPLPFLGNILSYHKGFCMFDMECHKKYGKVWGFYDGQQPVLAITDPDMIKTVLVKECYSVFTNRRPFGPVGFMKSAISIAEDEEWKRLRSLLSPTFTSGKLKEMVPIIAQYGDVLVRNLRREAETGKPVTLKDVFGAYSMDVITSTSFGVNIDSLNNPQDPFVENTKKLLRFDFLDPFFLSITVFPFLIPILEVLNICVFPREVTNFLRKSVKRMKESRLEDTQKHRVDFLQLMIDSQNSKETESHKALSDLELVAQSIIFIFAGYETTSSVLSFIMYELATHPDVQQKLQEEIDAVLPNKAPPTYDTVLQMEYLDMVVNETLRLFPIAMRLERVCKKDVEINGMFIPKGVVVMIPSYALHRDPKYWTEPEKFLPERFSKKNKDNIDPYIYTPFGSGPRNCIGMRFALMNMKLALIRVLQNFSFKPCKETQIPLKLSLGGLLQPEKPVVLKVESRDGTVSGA
T1 sequence (P48736 whole entry, canonical isoform): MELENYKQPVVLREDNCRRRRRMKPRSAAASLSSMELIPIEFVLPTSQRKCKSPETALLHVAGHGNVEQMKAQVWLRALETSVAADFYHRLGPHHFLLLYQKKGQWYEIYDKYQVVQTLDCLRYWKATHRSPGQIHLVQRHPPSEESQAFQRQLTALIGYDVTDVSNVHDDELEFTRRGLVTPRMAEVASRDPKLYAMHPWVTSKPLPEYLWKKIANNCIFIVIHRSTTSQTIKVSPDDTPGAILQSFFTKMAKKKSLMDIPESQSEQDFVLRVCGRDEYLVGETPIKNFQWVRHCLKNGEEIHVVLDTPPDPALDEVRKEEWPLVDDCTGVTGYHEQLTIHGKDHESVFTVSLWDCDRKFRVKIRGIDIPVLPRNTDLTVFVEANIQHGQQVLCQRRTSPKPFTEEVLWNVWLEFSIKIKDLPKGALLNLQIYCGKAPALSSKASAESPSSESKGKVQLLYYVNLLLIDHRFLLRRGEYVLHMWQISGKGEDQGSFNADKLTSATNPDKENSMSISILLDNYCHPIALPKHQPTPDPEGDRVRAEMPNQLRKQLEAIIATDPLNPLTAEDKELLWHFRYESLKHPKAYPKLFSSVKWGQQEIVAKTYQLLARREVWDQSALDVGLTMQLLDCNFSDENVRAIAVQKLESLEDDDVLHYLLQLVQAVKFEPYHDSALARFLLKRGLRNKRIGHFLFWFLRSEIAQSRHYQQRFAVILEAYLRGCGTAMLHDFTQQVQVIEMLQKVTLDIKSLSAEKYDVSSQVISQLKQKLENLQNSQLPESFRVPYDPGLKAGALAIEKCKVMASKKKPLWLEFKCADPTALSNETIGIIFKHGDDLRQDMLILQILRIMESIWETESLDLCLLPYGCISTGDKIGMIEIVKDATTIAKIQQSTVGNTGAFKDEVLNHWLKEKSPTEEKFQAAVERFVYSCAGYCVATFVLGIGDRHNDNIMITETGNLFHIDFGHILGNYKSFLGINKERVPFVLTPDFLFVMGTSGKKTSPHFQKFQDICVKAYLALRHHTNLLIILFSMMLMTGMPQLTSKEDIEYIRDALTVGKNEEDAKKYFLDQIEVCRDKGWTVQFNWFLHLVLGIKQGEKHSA
Chain of Phosphatidylinositol 4,5-bisphosphate 3-kinase catalytic subunit alpha isoform (P42336 whole entry, canonical isoform): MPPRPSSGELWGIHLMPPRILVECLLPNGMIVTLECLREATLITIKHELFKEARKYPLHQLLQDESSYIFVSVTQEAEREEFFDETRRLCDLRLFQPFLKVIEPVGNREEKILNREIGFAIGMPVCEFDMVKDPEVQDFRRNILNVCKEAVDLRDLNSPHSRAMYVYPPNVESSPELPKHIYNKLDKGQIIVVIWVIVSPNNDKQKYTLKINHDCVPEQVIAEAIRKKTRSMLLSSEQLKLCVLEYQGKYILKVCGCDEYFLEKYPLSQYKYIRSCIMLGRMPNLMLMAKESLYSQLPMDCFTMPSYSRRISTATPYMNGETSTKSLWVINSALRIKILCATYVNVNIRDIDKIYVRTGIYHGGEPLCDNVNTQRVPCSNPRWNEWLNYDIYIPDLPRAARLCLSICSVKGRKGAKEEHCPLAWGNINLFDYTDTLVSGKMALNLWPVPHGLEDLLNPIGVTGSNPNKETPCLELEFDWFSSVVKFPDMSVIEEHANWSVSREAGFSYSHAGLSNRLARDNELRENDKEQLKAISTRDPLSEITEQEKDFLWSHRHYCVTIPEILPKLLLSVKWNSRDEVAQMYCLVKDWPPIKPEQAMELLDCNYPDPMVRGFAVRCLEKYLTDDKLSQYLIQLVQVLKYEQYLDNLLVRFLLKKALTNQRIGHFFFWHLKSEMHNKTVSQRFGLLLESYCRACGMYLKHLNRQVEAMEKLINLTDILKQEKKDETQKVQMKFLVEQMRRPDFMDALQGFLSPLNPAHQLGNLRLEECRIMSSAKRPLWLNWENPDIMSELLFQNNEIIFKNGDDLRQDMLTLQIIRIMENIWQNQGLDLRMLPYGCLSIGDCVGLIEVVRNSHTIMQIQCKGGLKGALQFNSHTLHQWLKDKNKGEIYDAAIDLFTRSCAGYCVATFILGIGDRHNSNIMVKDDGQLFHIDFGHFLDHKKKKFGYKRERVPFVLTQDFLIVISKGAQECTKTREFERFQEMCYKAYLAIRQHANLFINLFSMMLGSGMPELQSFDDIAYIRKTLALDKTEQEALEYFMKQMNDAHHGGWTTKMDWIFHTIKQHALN
Chain of Phosphatidylinositol 4,5-bisphosphate 3-kinase catalytic subunit beta isoform (P42338 whole entry, canonical isoform): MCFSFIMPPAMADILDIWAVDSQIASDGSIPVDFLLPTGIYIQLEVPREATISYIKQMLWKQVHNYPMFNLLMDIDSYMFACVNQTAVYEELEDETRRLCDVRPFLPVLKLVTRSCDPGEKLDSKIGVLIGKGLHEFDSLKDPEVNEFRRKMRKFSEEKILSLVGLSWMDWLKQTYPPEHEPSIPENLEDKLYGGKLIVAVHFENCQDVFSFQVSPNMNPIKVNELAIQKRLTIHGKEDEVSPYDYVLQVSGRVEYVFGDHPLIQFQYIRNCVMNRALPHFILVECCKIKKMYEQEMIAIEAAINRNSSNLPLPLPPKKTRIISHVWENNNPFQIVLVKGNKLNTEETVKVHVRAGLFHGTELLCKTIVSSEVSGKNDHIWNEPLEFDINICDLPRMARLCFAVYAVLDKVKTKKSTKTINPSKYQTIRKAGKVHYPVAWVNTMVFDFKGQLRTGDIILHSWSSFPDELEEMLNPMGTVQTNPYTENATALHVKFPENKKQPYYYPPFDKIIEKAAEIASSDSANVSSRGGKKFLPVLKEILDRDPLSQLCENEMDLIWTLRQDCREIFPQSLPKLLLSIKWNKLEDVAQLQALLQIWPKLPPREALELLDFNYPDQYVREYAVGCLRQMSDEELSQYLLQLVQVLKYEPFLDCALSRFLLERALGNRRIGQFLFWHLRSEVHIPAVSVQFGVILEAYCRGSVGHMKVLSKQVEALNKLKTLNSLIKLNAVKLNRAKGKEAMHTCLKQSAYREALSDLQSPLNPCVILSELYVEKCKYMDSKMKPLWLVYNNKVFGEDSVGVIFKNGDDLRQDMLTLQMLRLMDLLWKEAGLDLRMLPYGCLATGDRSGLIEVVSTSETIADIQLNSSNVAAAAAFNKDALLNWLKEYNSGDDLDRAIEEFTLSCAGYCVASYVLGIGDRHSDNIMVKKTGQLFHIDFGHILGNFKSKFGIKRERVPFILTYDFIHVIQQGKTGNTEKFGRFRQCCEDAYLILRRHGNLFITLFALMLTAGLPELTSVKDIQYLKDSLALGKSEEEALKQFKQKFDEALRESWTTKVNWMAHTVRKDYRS
T3 sequence (Q12809 whole entry): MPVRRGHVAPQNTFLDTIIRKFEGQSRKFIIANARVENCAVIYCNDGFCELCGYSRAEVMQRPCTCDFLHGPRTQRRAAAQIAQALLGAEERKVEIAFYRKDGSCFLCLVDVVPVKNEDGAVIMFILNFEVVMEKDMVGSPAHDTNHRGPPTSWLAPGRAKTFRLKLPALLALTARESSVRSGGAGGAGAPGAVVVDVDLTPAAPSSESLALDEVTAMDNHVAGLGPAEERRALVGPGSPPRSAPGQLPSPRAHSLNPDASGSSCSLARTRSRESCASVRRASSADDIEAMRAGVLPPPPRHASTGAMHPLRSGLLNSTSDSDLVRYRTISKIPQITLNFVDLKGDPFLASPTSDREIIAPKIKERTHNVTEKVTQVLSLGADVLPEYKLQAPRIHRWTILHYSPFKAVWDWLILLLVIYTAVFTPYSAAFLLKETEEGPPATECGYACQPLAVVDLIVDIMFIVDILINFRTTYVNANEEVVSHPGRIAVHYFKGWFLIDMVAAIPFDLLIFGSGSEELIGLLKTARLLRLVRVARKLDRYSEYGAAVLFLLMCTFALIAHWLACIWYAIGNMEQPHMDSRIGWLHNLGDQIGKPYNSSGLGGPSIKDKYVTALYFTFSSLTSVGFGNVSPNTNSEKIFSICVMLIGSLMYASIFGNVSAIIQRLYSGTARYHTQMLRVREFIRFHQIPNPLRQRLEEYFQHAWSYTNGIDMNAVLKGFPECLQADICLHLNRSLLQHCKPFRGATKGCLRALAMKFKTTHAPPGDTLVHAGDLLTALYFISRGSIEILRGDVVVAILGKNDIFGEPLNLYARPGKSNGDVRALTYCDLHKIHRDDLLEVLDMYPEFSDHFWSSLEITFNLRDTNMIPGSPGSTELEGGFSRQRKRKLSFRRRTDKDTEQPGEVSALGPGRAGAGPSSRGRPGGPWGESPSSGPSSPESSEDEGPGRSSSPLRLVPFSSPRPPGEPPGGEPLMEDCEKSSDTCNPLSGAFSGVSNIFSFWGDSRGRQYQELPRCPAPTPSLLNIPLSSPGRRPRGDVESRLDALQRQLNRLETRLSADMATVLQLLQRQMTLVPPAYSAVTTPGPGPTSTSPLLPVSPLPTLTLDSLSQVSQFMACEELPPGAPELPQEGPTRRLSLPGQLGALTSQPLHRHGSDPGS

The IC50 is the concentration that gives 50% inhibition. What is called inhibition is how much of the control response was suppressed. A high value points to strong suppression. With `C[C@@H](C1CC1)N1Cc2cc(-c3ccn4nc(N)c(C(=O)N[C@H]5CC[C@](C)(O)CC5)c4n3)cc(NS(C)(=O)=O)c2C1=O`, the hepatocyte CLint at 0.5 µM in data set [1] worked out at 3.39 µL/min/1e6 cells. Further, the IC50 in data set [2] is 7.57 µM; in data set [3] it was 0.42 µM; in data set [5], 0.022 µM; in data set [8] it was 0.0009 µM; in data set [10], 0.268 µM; in data set [11], 0.326 µM. Further, the Ratio IC50 in [4] amounted to 8410; in [7], 362. In data set [6], this compound returned an inhibition at 30 min, 10 µM of 12%. In addition, the hepatocyte intrinsic clearance in data set [9] is 8.24 µL/min. The same compound came in with a CLH in [12] of 30 mL/min/kg.
With `C[C@@H](C1CC1)N1Cc2cc(-c3ccn4nc(N)c(C(=O)N[C@H]5CC[C@](O)(C(F)(F)F)CC5)c4n3)cc(NS(C)(=O)=O)c2C1=O`, the hepatocyte CLint at 0.5 µM in data set [1] was 1.9 µL/min/1e6 cells. Also, the IC50 came to 9.78 µM in [2]; 0.21 µM in data set [3]; 0.052 µM in data set [5]; 0.0021 µM in [8]; 1.06 µM in data set [10]; 4.03 µM in data set [11]. In addition, the results for the Ratio IC50 in [4] and in data set [7] were 4560 and 1880, respectively. Also, in data set [6], the inhibition at 30 min, 10 µM is 17%. At 3 µM the inhibition in data set [13] was 45%. Besides, in [9], the hepatocyte intrinsic clearance was 11 µL/min. For the same compound, the inhibition at 10 µM in data set [14] is 68%. This compound displayed a CLH in data set [12] of 23.3 mL/min/kg.
Take `C[C@@H](C1CC1)N1Cc2cc(-c3ccn4nc(N)c(C(=O)N[C@@H](CO)C5CC5)c4n3)cc(OC(F)F)c2C1=O`: in data set [1], the hepatocyte CLint at 0.5 µM is 4.35 µL/min/1e6 cells. The IC50 in data set [2] was 29.4 µM; in data set [3], 0.51 µM; in data set [5], 0.048 µM; in data set [8] it was 0.0031 µM; in [10], 3.11 µM; in [11] it was 1.91 µM. The Ratio IC50 worked out at 9400 in data set [4] and 611 in [7]. Moreover, in data set [6], the inhibition at 30 min, 10 µM came to 18%. Besides, the hepatocyte intrinsic clearance in data set [9] turned out to be 8.42 µL/min. Besides, testing at 10 µM in data set [14] gave an inhibition of 21%. The same compound came in with a CLH in [12] of 15 mL/min/kg.
Take `C[C@@H](C1CC1)N1Cc2cc(-c3ccn4nc(N)c(C(=O)N[C@@H](CO)C5CC5)c4n3)cc(OC(F)(F)F)c2C1=O`: the hepatocyte CLint at 0.5 µM in data set [1] was determined as 4.05 µL/min/1e6 cells. Further, the IC50 in data set [2] worked out at 8.55 µM; in data set [3] it was 0.75 µM; in [5], 0.072 µM; in data set [8], 0.0028 µM; in [10], 1.79 µM; in data set [11], 2.06 µM. Moreover, the Ratio IC50 in data set [4] came out at 3040; in data set [7], 733. Besides, the inhibition at 30 min, 10 µM in data set [6] was found to be 6%. In addition, the hepatocyte intrinsic clearance in data set [9] was < 1.2 µL/min. In addition, in [12], the CLH is 21.7 mL/min/kg.
